Source: ChEMBL document CHEMBL1132949, “Conceptually new 20-epi-22-oxa sulfone analogues of the hormone 1alpha,25-dihydroxyvitamin D(3): synthesis and biological evaluation” (2000)

Columns and labels:
MCF7 = test: In vitro activity on human breast adenocarcinoma cell line MCF-7 proliferation; type: functional; conditions: read-out: ED50 (the source's name)
[1] = In vitro vitamin D receptor (VDR)-mediated transcriptional potency in rat osteosarcoma ROS 17/2.8 cells; type: functional; conditions: read-out: ED50 (the source's name)
[2] = biological target: T1, Vitamin D3 receptor (Homo sapiens) (UniProt P11473); test: Binding affinity to Vitamin D3 receptor relative to 1,25D3
T1 sequence (whole entry): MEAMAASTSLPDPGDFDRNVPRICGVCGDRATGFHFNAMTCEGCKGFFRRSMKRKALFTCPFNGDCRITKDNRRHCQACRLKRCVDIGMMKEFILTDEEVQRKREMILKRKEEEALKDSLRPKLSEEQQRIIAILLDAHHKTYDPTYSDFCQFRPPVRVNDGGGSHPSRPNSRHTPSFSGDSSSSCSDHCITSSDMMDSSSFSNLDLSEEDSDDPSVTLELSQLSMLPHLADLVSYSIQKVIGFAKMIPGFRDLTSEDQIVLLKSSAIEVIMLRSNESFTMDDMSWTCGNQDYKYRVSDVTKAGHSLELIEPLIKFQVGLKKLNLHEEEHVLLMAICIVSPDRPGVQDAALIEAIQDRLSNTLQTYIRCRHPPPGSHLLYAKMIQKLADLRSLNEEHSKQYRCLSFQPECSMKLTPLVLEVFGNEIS

PBMC = test: In vitro inhibition of phytohemagglutininin-induced stimulation of human peripheral blood mononuclear cells proliferation; type: functional; conditions: read-out: ED50 (the source's name)

EC50 (MCF7) | EC50 [1] | Binding affinity [2] | SMILES | EC50 (PBMC)
9.6 nM | 1.6 nM | 26% | C=C1/C(=C\C=C2/CCC[C@]3(C)[C@@H]([C@@H](C)OCCCS(=O)(=O)C(C)(C)C)CC[C@@H]23)C[C@H](O)C[C@H]1O | 8.4 nM
0.27 nM | – | – | C=C1/C(=C\C=C2/CCC[C@]3(C)[C@@H]([C@@H](C)OCCCC(O)(CC)CC)CC[C@@H]23)C[C@@H](O)C[C@@H]1O [LEXACALCITOL] | –
– | > 100 nM | 0.4% | C=C1/C(=C\C=C2/CCC[C@]3(C)[C@@H]([C@@H](C)OCCCS(=O)(=O)C(C)(C)C)CC[C@@H]23)C[C@@H](O)C[C@@H]1O | –
